Measurements as given in the supplement of paper PMC12317010.
Counter-ions that a name gives are not always drawn.

Assay: collision cross section in nitrogen (drift tube, single-field); higher = larger gas-phase ion size
[1] = ion type: [M+H], ion source: APCI, ion mode: Positive
[2] = ion type: [M+H], ion source: ESI, ion mode: Positive
[3] = ion type: [M+Na], ion source: ESI, ion mode: Positive
[4] = ion type: [M-H], ion source: ESI, ion mode: Negative
[5] = ion type: [M+], ion source: APCI, ion mode: Positive
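Note: chemical standards at 10 µM analysed by drift tube IMS-QTOF MS in about 3.95 torr nitrogen, mean of duplicate injections differing ≤1%, mass error below 10 ppm.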

| Structure (SMILES) | collision cross section in nitrogen [1] [Å²] | collision cross section in nitrogen [2] [Å²] | collision cross section in nitrogen [3] [Å²] | collision cross section in nitrogen [4] [Å²] | collision cross section in nitrogen [5] [Å²] |
| --- | --- | --- | --- | --- | --- |
| O=C(O)c1ccccc1-n1cc(C(=O)O)c(=O)c2cc(Nc3c(F)cc(F)cc3Cl)c(Cl)cc21 [AVE9423] | 210.6 | 210.8 | 223.5 | 216.1 |  |
| COP(=O)(NC(C)=O)SC (stereo not drawn) [Acephate] |  |  | 141 | 133.9 |  |
| CC1=CC(=O)NS(=O)(=O)O1 [Acesulfame potassium] |  |  |  | 125.1 |  |
| CC(=O)Nc1ccc(O)cc1 [Acetaminophen] |  |  |  | 132.5 |  |
| C/C(=N\C#N)N(C)Cc1ccc(Cl)nc1 [Acetamiprid] | 155.1 | 154.6 | 157.7 | 149.1 |  |
| CC(=O)Nc1nnc(S(N)(=O)=O)s1 [Acetazolamide] |  |  |  | 137.8 |  |
| CC(=O)CC(=O)Nc1ccccc1 [Acetoacetanilide] |  |  |  | 138 |  |
| CCOCN(C(=O)CS(=O)(=O)O)c1c(C)cccc1CC [Acetochlor ESA] |  |  |  | 172.3 |  |
| CCCCOC(=O)CC(CC(=O)OCCCC)(OC(C)=O)C(=O)OCCCC [Acetyl tributyl citrate] |  |  | 207 |  |  |
| CC(=O)O[C@H](CC(=O)[O-])C[N+](C)(C)C [Acetyl-L-carnitine hydrochloride] |  | 143.9 |  |  |  |
| Nc1c(S(=O)(=O)O)cc(Nc2ccccc2)c2c1C(=O)c1ccccc1C2=O [Acid Blue 25] |  | 190.2 |  | 191.1 |  |
| Nc1ccc2cc(S(=O)(=O)O)cc(O)c2c1N=Nc1ccccc1C(F)(F)F [Acid Red 337] |  | 191.7 |  | 195.6 |  |
| C=CC(=O)OCCOC(=O)CCC(=O)O [Acryloyloxyethyl succinate] |  |  | 145.9 |  |  |
| CC(=O)Nc1ccc(CC(=O)O)cc1 [Actarit] |  | 143.7 | 143.5 |  |  |
| Nc1ncnc2[nH]cnc12 [Adenine] | 124.4 | 125.2 |  | 120.9 |  |
| CCCSc1ccc2[nH]c(NC(=O)OC)nc2c1 [Albendazole] | 166.9 | 166 |  |  | 160.4 |
| CNC(=O)ON=CC(C)(C)S(C)=O (stereo not drawn) [Aldicarb sulfoxide] |  |  | 147.4 |  |  |
| CNC(=O)ON=CC(C)(C)SC [Aldicarb] |  |  | 147.5 |  |  |
| C=CCO/N=C(\CCC)C1C(=O)CC(C)(C)C(C(=O)OC)C1=O (stereo not drawn) [Alloxydim sodium] | 175.7 | 175.7 | 179.4 | 177.7 |  |
| O=C1c2cccc(O)c2C(=O)c2c(O)cc(CO)cc21 [Aloe-emodin] |  |  |  | 157.1 |  |
| CCNc1nc(NC(C)C)nc(SC)n1 [Ametryn] | 155.2 | 155.5 |  |  |  |
| CNC(=O)Oc1ccc(N(C)C)c(C)c1 [Aminocarb] | 151.6 | 152.2 | 155.8 |  |  |
| CCC1(c2ccc(N)cc2)CCC(=O)NC1=O (stereo not drawn) [Aminoglutethimide] |  |  |  | 158.8 |  |
| Nc1nc(N)c2nc(CNc3ccc(C(=O)N[C@@H](CCC(=O)O)C(=O)O)cc3)cnc2n1 [Aminopterin] |  |  |  | 199.5 |  |
| CCCCc1oc2ccccc2c1C(=O)c1cc(I)c(OCCN(CC)CC)c(I)c1 [Amiodarone hydrochloride] | 223.8 | 224.2 | 231.6 |  | 224 |
